Experimental data from ChEMBL document CHEMBL1201862, “PubChem BioAssay data set” (2004).
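96-well plates; 48 h exposure; 5 concentrations. Endpoints by linear interpolation between flanking doses. Not reached: highest tested concentration assigned. Abbreviation: GI50, concentration required for 50% inhibition of growth.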 Calls of active or inactive are those of the source. Rule as the data show it: active = GI50 up to about 1.1 µM and inactive = higher.

Tests used:
Assay in all cases: NCI tumour cell line growth inhibition, 48 h
[1] = system: SK-OV-3
[2] = system: CAKI-1
[3] = system: HT-29
[4] = system: 786-0
[5] = system: SR
[6] = system: OVCAR-3
[7] = system: SK-MEL-5
[8] = system: OVCAR-8
[9] = system: HCT-15
[10] = system: UACC-62
[11] = system: LOX IMVI
[12] = system: BT-549
[13] = system: MDA-MB-435
[14] = system: A498
[15] = system: TK-10
[16] = system: Hs-578T
[17] = system: HOP-62
[18] = system: MOLT-4
[19] = system: MCF7
[20] = system: Malme-3M
[21] = system: KM12
[22] = system: NCI-H23
[23] = system: HCT-116
[24] = system: SF-268
[25] = system: CCRF-CEM
[26] = system: SF-295
[27] = system: HOP-92
[28] = system: T47D
[29] = system: SK-MEL-28
[30] = system: SF-539
[31] = system: NCI-H460
[32] = system: SNB-19
[33] = system: SW-620
[34] = system: M14
[35] = system: NCI/ADR-RES
[36] = system: SK-MEL-2
[37] = system: PC-3
[38] = system: UACC-257
[39] = system: SN12C
[40] = system: NCI-H522
[41] = system: OVCAR-5
[42] = system: UO-31
[43] = system: U-251
[44] = system: HCC 2998
[45] = system: MDA-N
[46] = system: IGROV-1
[47] = system: A549
[48] = system: K562
[49] = system: COLO 205
[50] = system: RPMI-8226
[51] = system: ACHN
[52] = system: MDA-MB-231
[53] = system: EKVX
[54] = system: HL-60
[55] = system: RXF 393
[56] = system: DU-145
[57] = system: NCI-H226
[58] = system: OVCAR-4
[59] = system: SNB-75

## COc1ccc(CCN2C(=O)C(=O)C(C(=O)c3ccccc3)C2c2ccccc2)cc1OC (centres undefined)
[1]
  GI50: > 100 µM (inactive)
[2]
  GI50: > 100 µM (inactive)
[3]
  GI50: > 100 µM (inactive)
[4]
  GI50: > 100 µM (inactive)
[5]
  GI50: > 100 µM (inactive)
[6]
  GI50: > 100 µM (inactive)
[7]
  GI50: > 100 µM (inactive)
[8]
  GI50: > 100 µM (inactive)
[9]
  GI50: 60.5 µM
[10]
  GI50: > 100 µM (inactive)
[11]
  GI50: 86.7 µM (inactive)
[12]
  GI50: 51.6 µM (inactive)
[13]
  GI50: > 100 µM (inactive)
[14]
  GI50: > 100 µM (inactive)
[15]
  GI50: > 100 µM (inactive)
[16]
  GI50: 41.6 µM (inactive)
[17]
  GI50: > 100 µM (inactive)
[18]
  GI50: > 100 µM (inactive)
[19]
  GI50: > 100 µM (inactive)
[20]
  GI50: > 100 µM (inactive)
[21]
  GI50: > 100 µM (inactive)
[22]
  GI50: > 100 µM (inactive)
[23]
  GI50: > 100 µM (inactive)
[24]
  GI50: > 100 µM (inactive)
[25]
  GI50: 56.5 µM (inactive)
[26]
  GI50: 44.2 µM (inactive)
[27]
  GI50: 41.7 µM (inactive)
[28]
  GI50: 90.8 µM (inactive)
[29]
  GI50: > 100 µM (inactive)
[30]
  GI50: > 100 µM (inactive)
[31]
  GI50: > 100 µM (inactive)
[32]
  GI50: > 100 µM (inactive)
[33]
  GI50: > 100 µM (inactive)
[34]
  GI50: > 100 µM (inactive)
[35]
  GI50: 58.6 µM (inactive)
[36]
  GI50: > 100 µM (inactive)
[37]
  GI50: > 100 µM (inactive)
[38]
  GI50: > 100 µM (inactive)
[39]
  GI50: 67.8 µM (inactive)
[40]
  GI50: > 100 µM (inactive)
[41]
  GI50: > 100 µM (inactive)
[42]
  GI50: > 100 µM (inactive)
[43]
  GI50: > 100 µM (inactive)
[44]
  GI50: > 100 µM (inactive)
[45]
  GI50: > 100 µM (inactive)
[46]
  GI50: > 100 µM (inactive)
[47]
  GI50: > 100 µM (inactive)
[48]
  GI50: > 100 µM (inactive)
[49]
  GI50: > 100 µM (inactive)
[50]
  GI50: 51.2 µM (inactive)
[51]
  GI50: > 100 µM (inactive)
[52]
  GI50: > 100 µM (inactive)
[53]
  GI50: > 100 µM (inactive)
[54]
  GI50: > 100 µM (inactive)
[55]
  GI50: > 100 µM (inactive)
[56]
  GI50: > 100 µM (inactive)

## O=C(/C=C/c1ccccc1)Oc1cccc(O)c1
[1]
  GI50: > 100 µM (inactive)
[57]
  GI50: > 100 µM (inactive)
[2]
  GI50: 49.1 µM (inactive)
[3]
  GI50: 37.2 µM (inactive)
[4]
  GI50: 77.8 µM (inactive)
[5]
  GI50: 18.2 µM (inactive)
[6]
  GI50: 73.8 µM (inactive)
[7]
  GI50: 37.5 µM (inactive)
[8]
  GI50: 44.3 µM (inactive)
[9]
  GI50: 16.6 µM
[10]
  GI50: > 100 µM (inactive)
[11]
  GI50: 27.5 µM (inactive)
[12]
  GI50: > 100 µM (inactive)
[13]
  GI50: > 100 µM (inactive)
[14]
  GI50: > 100 µM (inactive)
[15]
  GI50: > 100 µM (inactive)
[16]
  GI50: 25.9 µM (inactive)
[58]
  GI50: 36.3 µM (inactive)
[17]
  GI50: 53.6 µM (inactive)
[18]
  GI50: 6.03 µM (inactive)
[19]
  GI50: 38.7 µM (inactive)
[20]
  GI50: 19.5 µM (inactive)
[21]
  GI50: 19.1 µM (inactive)
[22]
  GI50: 63.8 µM (inactive)
[23]
  GI50: 16.4 µM (inactive)
[24]
  GI50: 15.5 µM (inactive)
[26]
  GI50: 17.8 µM (inactive)
[27]
  GI50: > 100 µM (inactive)
[28]
  GI50: 59.6 µM (inactive)
[29]
  GI50: 23.6 µM (inactive)
[30]
  GI50: > 100 µM (inactive)
[31]
  GI50: > 100 µM (inactive)
[32]
  GI50: 20.2 µM (inactive)
[33]
  GI50: 18.3 µM (inactive)
[34]
  GI50: 43.1 µM (inactive)
[35]
  GI50: 42.8 µM (inactive)
[36]
  GI50: > 100 µM (inactive)
[37]
  GI50: > 100 µM (inactive)
[38]
  GI50: > 100 µM (inactive)
[39]
  GI50: 44.1 µM (inactive)
[40]
  GI50: 6.81 µM (inactive)
[41]
  GI50: 30.3 µM (inactive)
[42]
  GI50: > 100 µM (inactive)
[59]
  GI50: 65 µM (inactive)
[43]
  GI50: 34.3 µM (inactive)
[44]
  GI50: > 100 µM (inactive)
[45]
  GI50: 57.8 µM (inactive)
[46]
  GI50: 17.3 µM (inactive)
[47]
  GI50: 46 µM (inactive)
[49]
  GI50: 55 µM (inactive)
[50]
  GI50: 9.55 µM (inactive)
[51]
  GI50: > 100 µM (inactive)
[52]
  GI50: 47.9 µM (inactive)
[54]
  GI50: 16.9 µM (inactive)
[55]
  GI50: > 100 µM (inactive)
[56]
  GI50: 80.7 µM (inactive)

## O=C(O)c1cccc(C(=O)O)c1[S+]([O-])Cc1ccccc1 (centres undefined)
[1]
  GI50: > 100 µM (inactive)
[57]
  GI50: > 100 µM (inactive)
[2]
  GI50: > 100 µM (inactive)
[3]
  GI50: > 100 µM (inactive)
[4]
  GI50: > 100 µM (inactive)
[5]
  GI50: > 100 µM (inactive)
[6]
  GI50: > 100 µM (inactive)
[7]
  GI50: > 100 µM (inactive)
[8]
  GI50: > 100 µM (inactive)
[9]
  GI50: > 100 µM
[10]
  GI50: > 100 µM (inactive)
[11]
  GI50: > 100 µM (inactive)
[12]
  GI50: > 100 µM (inactive)
[13]
  GI50: > 100 µM (inactive)
[14]
  GI50: > 100 µM (inactive)
[15]
  GI50: > 100 µM (inactive)
[16]
  GI50: > 100 µM (inactive)
[58]
  GI50: > 100 µM (inactive)
[17]
  GI50: > 100 µM (inactive)
[19]
  GI50: > 100 µM (inactive)
[20]
  GI50: > 100 µM (inactive)
[21]
  GI50: > 100 µM (inactive)
[22]
  GI50: > 100 µM (inactive)
[23]
  GI50: > 100 µM (inactive)
[24]
  GI50: > 100 µM (inactive)
[26]
  GI50: > 100 µM (inactive)
[27]
  GI50: > 100 µM (inactive)
[28]
  GI50: > 100 µM (inactive)
[29]
  GI50: > 100 µM (inactive)
[30]
  GI50: > 100 µM (inactive)
[31]
  GI50: > 100 µM (inactive)
[32]
  GI50: > 100 µM (inactive)
[33]
  GI50: > 100 µM (inactive)
[34]
  GI50: > 100 µM (inactive)
[35]
  GI50: > 100 µM (inactive)
[36]
  GI50: > 100 µM (inactive)
[37]
  GI50: > 100 µM (inactive)
[38]
  GI50: > 100 µM (inactive)
[39]
  GI50: > 100 µM (inactive)
[40]
  GI50: > 100 µM (inactive)
[41]
  GI50: > 100 µM (inactive)
[42]
  GI50: > 100 µM (inactive)
[59]
  GI50: > 100 µM (inactive)
[43]
  GI50: > 100 µM (inactive)
[44]
  GI50: > 100 µM (inactive)
[45]
  GI50: > 100 µM (inactive)
[46]
  GI50: > 100 µM (inactive)
[47]
  GI50: > 100 µM (inactive)
[48]
  GI50: > 100 µM (inactive)
[49]
  GI50: > 100 µM (inactive)
[50]
  GI50: > 100 µM (inactive)
[51]
  GI50: > 100 µM (inactive)
[52]
  GI50: > 100 µM (inactive)
[53]
  GI50: > 100 µM (inactive)
[54]
  GI50: > 100 µM (inactive)
[55]
  GI50: > 100 µM (inactive)
[56]
  GI50: > 100 µM (inactive)
